Results as given in patent publication US20230203055A1, “FUSED RING COMPOUND AND APPLICATION THEREOF IN MEDICINE” (Betta Pharmaceuticals Co., LTD, priority 2020, published 2023).

Tests used:
[1] = tested on: MIA PaCa-2 cells; assay: Detection of cell proliferation inhibition, MIA PaCa-2 (Cell-titer Glo, 96 h); assay type: cell-based; settings: Homo sapiens, read-out: IC50 (nM) MIA PaCa-2
Description: MIA PaCa-2 cells were plated in a 96-well ultra-low adsorption plate at 600 cells and 160 µL/well. After overnight incubation, compound solutions with gradient concentrations were prepared, and 40 µL of DMSO solutions of the compounds to be tested were added to each well of cells respectively. Compound final concentrations were 10000, 2000, 400, 80, 16, 3.2, 0.64, 0.12, 0.025, 0 nM (all final concentrations of DMSO were 0.25%). Incubate at 37° C., 5% CO2 for 96 h. Add 50 µL of Cell-titer Glo working solution to each well, shake and mix well, incubate at room temperature for 10 min, read the Luminescence luminescence value with a multi-function microplate reader, and convert the luminescence value reading into inhibition percentage: Percent Inhibition = (Max-Reading)/(Max-Min)* 100. • “Max” is the DMSO control; • “Min” is the cell-free control.
Curve fitting was performed with Graphpad Prism software and IC50 values were obtained. See Table 1for IC50 data for the inhibition of MIA PaCa-2 cells by the compounds of the examples.

[2] = tested on: H358 cells; assay: Detection of cell proliferation inhibition, H358 (Cell-titer Glo, 96 h); assay type: cell-based; settings: Homo sapiens, NCI-H358, read-out: IC50 (nM) H358
Description: H358 cells were plated in 96-well ultra-low adsorption plates at 2000 cells and 190 µL/well. After overnight incubation, compound solutions of gradient concentrations were prepared, and 10 µL of the DMSO solution of each concentration of the compound to be tested was added to the cells in each well. Compound final concentrations were 10000, 3333.3, 1111.1, 370.4, 123.5, 41.2, 13.7, 4.6, 1.5, 0 nM (all final concentrations of DMSO were 0.25%). Incubate at 37° C., 5% CO2 for 96 h. Add 50 µL of Cell-titer Glo working solution to each well, incubate at room temperature for 10 min after shaking and mixing, read the Luminescence luminescence value with a multi-function microplate reader, and convert the luminescence value reading into the inhibition percentage:
Percent Inhibition = (Max-Reading)/(Max-Min)* 100. • “Max” is the DMSO control, • “Min” is the cell-free control.
Curve fitting was performed with Graphpad Prism software and IC50 values were obtained. See Table 1 for IC50 data on H358 cell inhibition by example compounds.

**Q.** What does the source list for `C=CC(=O)N1CCN(c2nc(=O)n(-c3c(CC)ncnc3CC)c3c4c(c(Cl)cc23)-c2c(F)cccc2CCO4)[C@@H](C)C1` [Example 24]?
**A.** IC50 [1]: < 50 nM; IC50 [2]: < 50 nM

**Q.** What does the source list for `C=CC(=O)N1CCN(c2nc(=O)n(-c3c(C)ccnc3C(C)C)c3c4c(c(F)cc23)-c2c(F)cccc2CO4)CC1CC#N` (stereo not shown) [Example 25, 2-(1-Acryloyl-4-(10,11-Difluoro-4-(2-Isopropyl-4-Methylpyridin-3-yl)-3-Oxo-3,6-Dihydro-4H-Isochromene[4,3-h] Quinazolin-1-yl) Piperazin-2-yl)Acetonitrile]?
**A.** IC50 [1]: 122 nM; IC50 [2]: 339 nM

**Q.** Which IC50 [1] does the source give for `C=CC(=O)N1CCN(c2nc(=O)n(-c3c(C)ccnc3C(C)C)c3c(F)c4c(cc23)OCc2cccc(F)c2-4)CC1CC#N` (stereo not shown) [Example 26, 2-(1-Acryloyl-4-(1,12-Difluoro-11-(2-Isopropyl-4-Methylpyridin-3-yl)-10-Oxo-10,11-Dihydro-5H -Isochromene[3,4-g]Quinazolin-8-yl)Piperazin-2-yl)Acetonitrile] here?
**A.** 546 nM

**Q.** What about the IC50 [2] of the same molecule?
**A.** 349 nM

**Q.** Which results are given for `C=CC(=O)N1CCN(c2nc(=O)n(-c3c(C(C)C)ncc4c3CCC4)c3c4c(c(Cl)cc23)-c2c(ccc(F)c2F)CO4)[C@@H](C)C1` [Example 27]?
**A.** IC50 [1]: 66 nM; IC50 [2]: 110 nM

**Q.** `C=CC(=O)N1CCN(c2nc(=O)n(-c3c(C)ccnc3C(C)C)c3c4c(c(Cl)cc23)-c2c(F)ccc(O)c2CO4)[C@@H](C)C1` [Example 28] was tested. Which IC50 [1] did it give?
**A.** 85 nM

**Q.** And the IC50 [2]?
**A.** 95 nM

**Q.** What does the source list for `C=CC(=O)N1CCN(c2nc(=O)n(-c3c(C)ccnc3C(C)C)c3c4c(c(Cl)cc23)-c2c(F)ccc(F)c2CO4)[C@@H](C)C1` [Example 29]?
**A.** IC50 [1]: < 50 nM; IC50 [2]: < 50 nM

**Q.** Which results are given for `C=CC(=O)N1CCN(c2nc(=O)n(-c3c(C)ccnc3C(C)C)c3c4c(c(Cl)cc23)-c2c(ccc(F)c2F)CCO4)[C@@H](C)C1` [Example 30, 10-((S)-4-Acryloyl-2-Methylpiperazin-1-yl)-8-Chloro-6,7-Difluoro-13-(2-Isopropyl-4-Methylpyridin-3-yl)-2,3-Dihydrobenzo[4,5] Oxa[3,2-h]Quinazolin-12(13H)-One]?
**A.** IC50 [1]: < 50 nM; IC50 [2]: < 50 nM

**Q.** Which results are given for `C=CC(=O)N1CCN(c2nc(=O)n(-c3c(CC)cncc3CC)c3c4c(c(Cl)cc23)-c2c(F)cccc2CCO4)[C@@H](C)C1` [Example 31, 10-((S)-4-Actyloyl-2-Methylpiperazin-1-yl)-8-Chloro-13-(3,5-Diethylpyridin-4-yl)-7-Fluoro-2,3-Dihydrobenzo[4,5]Oxa[3,2-h]Quinazolin-12(13H)-One]?
**A.** IC50 [1]: < 50 nM; IC50 [2]: < 50 nM

**Q.** Which IC50 [1] does the source give for `C=CC(=O)N1CCN(c2nc(=O)n(-c3c(C4CC4)ncnc3C3CC3)c3c4c(c(Cl)cc23)-c2c(F)cccc2CCO4)[C@@H](C)C1` [Example 32, 10-((S)-4-Acryloyl-2-Methylpiperazin-1-yl)-8-Chloro-13-(4,6-Dicyclopropylpyrimidine-5-Base)-7 -Fluoro-2,3-Dihydrobenzo[4,5] Oxa[3,2-h]Quinazolin-12(13H)-One] here?
**A.** < 50 nM

**Q.** And the IC50 [2]?
**A.** < 50 nM

**Q.** How did the IC50 [1] turn out when `C=CC(=O)N1CCN(c2nc(=O)n(-c3c(C)ccnc3C(C)C)c3c4c(c(Cl)cc23)-c2c(F)cccc2CO4)C2CC21` (stereo not shown) [Example 33, 1-(5-Acryloyl-2,5-Diazabicyclo [4.1.0] Heptan-2-yl)-11-Chloro-10-Fluoro-4-(2-Isopropyl-4-Methylpyridin-3-yl)-4H-Isochromeno[4,3-h]Quinazolin-3(6H)-One] was run?
**A.** < 50 nM

**Q.** What about the IC50 [2] of the same molecule?
**A.** < 50 nM

**Q.** How did the IC50 [1] turn out when `C=C(F)C(=O)N1CCN(c2nc(=O)n(-c3c(C)ccnc3C(C)C)c3c4c(c(Cl)cc23)-c2c(ccc(F)c2F)CO4)[C@@H](C)C1` [Example 34, (S)-11-Chloro-9,10-Difluoro-1-(4-(2-Fluoroacryloyl)-2-Methylpiperazin-1-yl)-4-(2-Isopropyl-4-Methylpyridin-3-yl)-4H-Isochromo[4,3-h] Quinazolin-3(6H)-One] was run?
**A.** 908 nM

**Q.** What about the IC50 [2] of the same molecule?
**A.** 780 nM

**Q.** Which results are given for `[2H]C1([2H])Oc2c(c(Cl)cc3c(N4CCN(C(=O)C=C)C[C@@H]4C)nc(=O)n(-c4c(C)ccnc4C(C)C)c23)-c2c1ccc(F)c2F` [Example 35]?
**A.** IC50 [1]: < 50 nM; IC50 [2]: < 50 nM

**Q.** For `C=CC(=O)N1CCN(c2nc(=O)n(-c3c(C)ccnc3C(C)C)c3nc4c(cc23)OCc2ccccc2-4)[C@@H](C)C1` [Example 36, (S)-8-(4-Acryloyl-2-Methylpiperazin-1-yl)-11-(2-Isopropyl-4-Methylpyridin-3-yl) -5H-Isochromene[3’,4′:5,6]Pyrido[2,3-d]Pyrimidin-10(11H)-One], which IC50 [1] is on record?
**A.** 442 nM

**Q.** And the IC50 [2]?
**A.** 889 nM

**Q.** `C=CC(=O)N1CCN(c2nc(=O)n(-c3c(C)ccnc3C(C)C)c3nc4c(cc23)OCc2cccc(O)c2-4)[C@@H](C)C1` [Example 37, (S)-8-(4-Acryloyl-2-Methylpiperazin-1-yl)-1-Hydroxy-11-(2-Isopropyl-4-Methylpyridine-3-yl)-5 H-Isochromene [3’,4’:5,6] Pyrido [2,3-d] Pyrimidin 10(11H)-One] was tested. Which IC50 [1] did it give?
**A.** 1340 nM

**Q.** What about the IC50 [2] of the same molecule?
**A.** 2490 nM
